# Results published in patent US6723753B2, “Substituted n-benzyl-n-phenyl aminoalcohol compounds useful for inhibiting cholesteryl ester transfer protein activity” (Pharmacia Corporation, priority 2002, dated 2004).
# pIC50: −log10 of the molar value.
# Biological target: T1, CETP (Homo sapiens, UniProt P11597)
# T1 sequence (P11597 18-493): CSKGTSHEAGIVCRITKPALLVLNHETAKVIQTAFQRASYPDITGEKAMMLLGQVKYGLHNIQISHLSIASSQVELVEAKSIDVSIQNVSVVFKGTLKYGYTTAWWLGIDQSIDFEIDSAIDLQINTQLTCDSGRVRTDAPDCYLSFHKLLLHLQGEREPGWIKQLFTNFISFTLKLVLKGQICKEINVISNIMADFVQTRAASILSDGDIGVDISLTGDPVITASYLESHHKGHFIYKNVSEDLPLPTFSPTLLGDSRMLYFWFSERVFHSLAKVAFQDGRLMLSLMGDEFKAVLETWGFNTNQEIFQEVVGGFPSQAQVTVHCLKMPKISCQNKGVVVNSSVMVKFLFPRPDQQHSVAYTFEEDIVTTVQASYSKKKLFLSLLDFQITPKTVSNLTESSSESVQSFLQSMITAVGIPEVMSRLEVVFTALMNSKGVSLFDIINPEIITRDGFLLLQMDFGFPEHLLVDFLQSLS
# Test: Assay of CETP Inhibition using Purified Components (Reconstituted Buffer Assay)
# Assay type: biochemical
# Parameters: made in house; host or cells: CHO cells (serum-free conditioned medium)
# Conditions: IC50, Inhibition of CETP activity in reconstituted buffer assay; transfer of [3H]CE from HDL to LDL
# Outline: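 Purified human recombinant CETP from transfected CHO cells was incubated with [^3H]CE-labeled HDL donor and LDL acceptor in Tris pH 7.4/NaCl/EDTA/1% BSA buffer for 2 h at 37 °C. LDL was then precipitated with dextran sulfate/MgCl2, filtered, and counted by liquid scintillation to give IC50 for CE transfer.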
row,SMILES,pIC50
1,OC(CN(Cc1cccc(Oc2ccccc2)c1)c1cccc(F)c1)C(F)(F)F (stereo not drawn) [Example 64],4.82
2,Cc1cccnc1-c1cccc(CN(CC(O)C(F)(F)F)c2cccc(Oc3ccccc3)c2)c1 (stereo not drawn) [Example 589],4.82
3,OC(CN(Cc1cccc(C(F)(F)F)c1)c1cccc(C(F)(F)F)c1)C(F)(F)F (stereo not drawn) [Example 47],5.00

# Same assay, conditions: Inhibition of CETP activity in reconstituted buffer assay; transfer of [3H]CE from HDL to LDL; read-out: IC50
row,pIC50,SMILES
1,5.62,OC(CN(Cc1cccc(OC(F)(F)C(F)F)c1)c1cccc(NCc2ccccc2)c1)C(F)(F)F (stereo not drawn) [Example 542]
2,5.48,O=C(NC1CCCCC1)c1cccc(N(Cc2cccc(OC(F)(F)C(F)F)c2)CC(O)C(F)(F)F)c1 (stereo not drawn) [Example 459]
3,< 4.30,O=C(NCc1ccc(F)cc1)c1cccc(N(Cc2cccc(OC(F)(F)C(F)F)c2)CC(O)C(F)(F)F)c1 (stereo not drawn) [Example 467]
4,< 4.00,OC(CN(Cc1cccc(Cl)c1)Cc1ccccc1C(F)(F)F)C(F)(F)F (stereo not drawn) [compound 175]
5,< 4.00,Cc1ccc(CN(Cc2cccc(F)c2)CC(O)C(F)(F)F)cc1 (stereo not drawn) [compound 178]
6,5.00,Nc1cccc(-c2cccc(N(Cc3cccc(OC(F)(F)C(F)F)c3)CC(O)C(F)(F)F)c2)c1 (stereo not drawn) [Example 572]
7,< 4.00,"CCN(CC)c1ccc(CN(CC(O)C(F)(F)F)c2cccc(Oc3ccccc3)c2)cc1 (stereo not drawn) [Example 631, 3-[(3-phenoxyphenyl)[[4-(N,N-diethylamino)phenyl]methyl]amino]-1,1,1-trifluoro-2-propanol]"
8,< 4.30,CS(=O)(=O)c1ccc(S(=O)(=O)c2cccc(N(Cc3cccc(OC(F)(F)C(F)F)c3)CC(O)C(F)(F)F)c2)cc1 (stereo not drawn) [Example 487]
9,5.08,COc1ccc(Sc2cccc(N(Cc3cccc(OC(F)(F)C(F)F)c3)CC(O)C(F)(F)F)c2)cc1 (stereo not drawn) [compound 291]
10,5.21,CC(C)(CO)COc1cccc(N(Cc2cccc(OC(F)(F)C(F)F)c2)CC(O)C(F)(F)F)c1 (stereo not drawn) [Example 512]
11,< 4.30,O=C(NCc1ccccc1)c1cccc(N(Cc2cccc(OC(F)(F)C(F)F)c2)CC(O)C(F)(F)F)c1 (stereo not drawn) [Example 465]
12,5.72,OC(CN(Cc1cccc(OC(F)(F)C(F)F)c1)c1cccc(SCc2cc(Cl)cs2)c1)C(F)(F)F (stereo not drawn) [Example 480]
13,< 4.00,OC(CN(Cc1ccccc1Cl)Cc1ccccc1C(F)(F)F)C(F)(F)F (stereo not drawn) [compound 177]
14,5.68,CC(C)(C)C(=O)COc1cccc(N(Cc2cccc(OC(F)(F)C(F)F)c2)CC(O)C(F)(F)F)c1 (stereo not drawn) [Example 513]
15,5.30,"CCC(=O)c1cccc(CN(CC(O)C(F)(F)F)c2cccc(Oc3ccccc3)c2)c1 (stereo not drawn) [Example 620, 1-[3-[[(3-phenoxyphenyl)(3,3,3-trifluoro-2-hydroxypropyl)-amino]methyl]phenyl]-1-propanone]"
16,5.49,COc1c(F)c(F)c(COc2cccc(N(Cc3cccc(OC(F)(F)C(F)F)c3)CC(O)C(F)(F)F)c2)c(F)c1F (stereo not drawn) [Example 386]
17,< 4.00,OC(CN(Cc1ccc(Cl)cc1)Cc1ccccc1C(F)(F)F)C(F)(F)F (stereo not drawn) [compound 176]
18,4.46,"CN(C)C(=O)c1cccc(CN(CC(O)C(F)(F)F)c2cccc(Oc3ccccc3)c2)c1 (stereo not drawn) [Example 612, N,N-dimethyl-3-[[(3-phenoxyphenyl)(3,3,3-trifluoro-2-hydroxypropyl)amino]methyl]benzamide]"
19,6.89,Cc1cc(C)cc(COc2cccc(N(Cc3cccc(OC(F)(F)C(F)F)c3)CC(O)C(F)(F)F)c2)c1 (stereo not drawn) [Example 423]
20,5.34,OC(CN(Cc1cccc(OC(F)(F)C(F)F)c1)c1cccc(-c2cccnc2)c1)C(F)(F)F (stereo not drawn) [Example 454]
21,< 4.30,O=S(=O)(Nc1cccc(N(Cc2cccc(OC(F)(F)C(F)F)c2)CC(O)C(F)(F)F)c1)c1cccc(C(F)(F)F)c1 (stereo not drawn) [Example 531]
22,4.89,CCCCNC(=O)c1cccc(N(Cc2cccc(OC(F)(F)C(F)F)c2)CC(O)C(F)(F)F)c1 (stereo not drawn) [Example 458]
23,5.77,CC(C)C(O)c1cccc(N(Cc2cccc(OC(F)(F)C(F)F)c2)CC(O)C(F)(F)F)c1 (stereo not drawn) [compound 584]
24,< 4.00,COc1ccccc1N(Cc1cccc(C(F)(F)F)c1)CC(O)C(F)(F)F (stereo not drawn) [Example 669]
25,6.01,CC(C)CNc1cccc(N(Cc2cccc(OC(F)(F)C(F)F)c2)CC(O)C(F)(F)F)c1 (stereo not drawn) [Example 541]
26,5.19,"OC(c1ccccc1)c1cccc(N(Cc2cccc(OC(F)(F)C(F)F)c2)CC(O)C(F)(F)F)c1 (stereo not drawn) [Example 583, α-Phenyl-3-[[[3-(1,1,2,2-tetrafluoroethoxy)phenyl]methyl]](3,3,3-trifluoro-2-hydroxypropyl)benzenemethanol]"

# Continued, molecule first:
row,SMILES,pIC50
1,Cc1ccccc1N(Cc1ccc(C(F)(F)F)cc1)CC(O)C(F)(F)F (stereo not drawn) [Example 40],< 4.00
2,O=[N+]([O-])c1ccc(CN(CC(O)C(F)(F)F)c2cccc(Oc3ccccc3)c2)cc1 (stereo not drawn) [Example 148],4.82
3,OC(CN(Cc1cccc(OC(F)(F)C(F)F)c1)c1cccc(Oc2cc3ccccc3cn2)c1)C(F)(F)F (stereo not drawn) [Example 284],< 4.30
4,COc1ccc(OC)c(CN(CC(O)C(F)(F)F)c2cccc(OC(F)(F)F)c2)c1 (stereo not drawn) [Example 355],4.12
5,OC(COC(F)(F)C(F)F)CN(Cc1cccc(OC(F)(F)C(F)F)c1)c1cccc(Oc2ccccc2)c1 (stereo not drawn) [Example 212],5.74
6,N#Cc1cccc(N(Cc2ccc(C(F)(F)F)cc2)CC(O)C(F)(F)F)c1 (stereo not drawn) [Example 142],4.40
7,OC(CN(Cc1cccc(OC(F)(F)F)c1)c1cccc(Cl)c1)C(F)(F)F (stereo not drawn) [Example 41],4.92
8,OC(CN(Cc1cc(C(F)(F)F)cc(C(F)(F)F)c1)c1cccc(Oc2ccccc2)c1)C(F)(F)F (stereo not drawn) [Example 145],4.82
9,Oc1cc(O)cc(CN(CC(O)C(F)(F)F)c2cccc(OC(F)(F)F)c2)c1 (stereo not drawn) [Example 360],< 4.00
10,OC(CN(Cc1cccc(OC(F)(F)C(F)F)c1)c1cccc(CBr)c1)C(F)(F)F (stereo not drawn) [514D],4.82
11,CCOc1cccc(CN(CC(O)C(F)(F)F)c2cccc(OC(F)(F)F)c2)c1 (stereo not drawn) [Example 101],5.22
12,Oc1cc(CN(CC(O)C(F)(F)F)c2cccc(OC(F)(F)F)c2)cc(O)c1O (stereo not drawn) [Example 359],< 4.00
13,OC(CN(Cc1ccc(OC(F)(F)F)cc1)c1cccc(Br)c1)C(F)(F)F (stereo not drawn) [Example 62],4.74
14,Cc1ccc(N(CCC#N)c2cccc(N(Cc3cccc(OC(F)(F)C(F)F)c3)CC(O)C(F)(F)F)c2)cc1 (stereo not drawn) [Example 314],4.85
15,CC(c1ccc(C#N)cc1)N(CC(O)C(F)(F)F)c1cccc(Oc2ccccc2)c1 (stereo not drawn) [Example 202],< 4.00
16,OC(CN(Cc1cccc(OC(F)(F)C(F)F)c1)c1cccc(Oc2ccccc2Cl)c1)C(F)(F)F (stereo not drawn) [Example 222],6.57
17,OC(CN(Cc1cccc(OC(F)(F)C(F)F)c1)c1cccc(OCc2c(F)c(F)c(C(F)(F)F)c(F)c2F)c1)C(F)(F)F (stereo not drawn) [Example 380],4.96
18,OC(CN(Cc1cccc2ccccc12)c1cccc(OC(F)(F)F)c1)C(F)(F)F (stereo not drawn) [Example 332],4.10
19,OC(CN(CC=Cc1ccccc1)c1cccc(OC(F)(F)F)c1)C(F)(F)F (stereo not drawn) [Example 352],4.46
20,OC(CN(Cc1cccc(Oc2ccccc2)c1)c1ccc(Oc2ccccc2)cc1)C(F)(F)F (stereo not drawn) [Example 151],< 4.00
21,OC(CN(Cc1cccnc1)c1cccc(OC(F)(F)F)c1)C(F)(F)F (stereo not drawn) [Example 345],4.35
22,COc1cccc(CN(CC(O)C(F)(F)F)c2cccc(OC(F)(F)F)c2)c1 (stereo not drawn) [Example 121],< 4.00
